What was measured:
[1] = Plasma pharmacokinetics of Compound A, CC-90010-GBM-001 study; assay type: in vivo, human
Text: The primary objectives of the study in this example were determination of tumor tissue concentration and plasma pharmacokinetics (PK) of Compound A. The secondary and exploratory objectives included safety, antitumor activity, cerebrospinal fluid concentration, and pharmacodynamics (PD).
The study described in this example (CC-90010-GBM-001 study/NCT04047303) enrolled patients with progressive or recurrent astrocytoma or recurrent glioblastoma who have failed radiation and chemotherapy, and who are candidates for surgical tumor resection as part of their salvage regimen.
Patients were treated with Compound A at 30 mg daily on Day 1 to Day 4 prior to undergoing indicated tumor resection and to maintain platelet count above the minimum of […] recommended for surgery (Part A, preoperative treatment). Following recovery from surgery and a minimum of 4 weeks from the first dose of Compound A, subjects who were fit to continue were treated with Compound A at 45 mg on a 4 days on/24 days off schedule (180 mg per 28-day cycle). Maintenance treatment continued until disease progression, unacceptable toxicity, or withdrawal of consent.
The blood PK, blood PD, tumor PK and tumor PD data were available for 20, 12, 20, and 11 patients, respectively.

[2] = Safety (TRAEs/TEAEs), CC-90010-GBM-002 Parts A and B; assay type: in vivo
Text: This was then followed by a break in treatment therapy, e.g., from 1 to up to 4 weeks. […] Adjuvant therapy cycles were repeated from 2 to 6 times. After adjuvant therapy, was a monotherapy treatment.
The demographics and characteristics of treated patients are described in the below table.

newly diagnosed GBM = test: Efficacy (duration of treatment, PFS, best overall response), CC-90010-GBM-002 Part A; assay type: in vivo, human
Text: The Response Assessment in Neuro-Oncology criteria (RANO) is used to assess response to first-line treatment of glioblastoma. See, Leao, D. J. et al., American Journal of Neuroradiology 2019, 1-11. The RANO criteria divides response into four types of response based on imaging (MRI) and clinical features: (1) complete response (CR); (2) partial response (PR); (3) stable disease (SD); and (4) progression. For this assessment, a measurable disease is defined as bidimensional contrast-enhancing lesions with clearly defined margins, with 2 perpendicular diameters of at least 10 mm, visible on ≥2 axial slices. The nonmeasurable disease is defined as either unidimensional measurable lesions, masses with margins not clearly defined as frequently noted in the surgical margins, or lesions with maximal perpendicular diameters of <10 mm.
The study described in this example (CC-90010-GBM-002/NCT04324840) is a phase 1B dose-finding study investigating standard of care of Compound A in combination with TMZ with or without radiotherapy (RT) in subjects with newly diagnosed GBM. Part A of the study is escalating the oral doses of Compound A in combination with adjuvant TMZ to estimate the MTD and/or the RP2D of Compound A as adjuvant therapy and escalating the oral doses of Compound A in combination with concomitant TMZ+radiotherapy (RT) to estimate the MTD and/or the RP2D of Compound A as concomitant therapy. Part B of the study is the safety and efficacy of Compound A administered at or below the MTD determined for the adjuvant therapy (AT) and concomitant therapy (CT).
For adjuvant therapy, Compound A and TMZ was administered for 6 cycles, then Compound A as a monotherapy was administered in 28-day cycles until disease progression, start of a new anticancer therapy, or withdrawal of consent or physician's decision. For adjuvant therapy, Compound A was administered at 15, 30, and 45 mg 4 days on/24 days off and TMZ was administered at 150 or 200 mg/m^2 QD Days 1-5, followed by Compound A at 45 mg 4 days on/24 days off. For adjuvant therapy, part B, Compound A was administered at RP2D and TMZ was administered at 150 or 200 mg/m^2, followed by Compound A at 45 mg 4 days on/24 days off.
For concomitant therapy, Compound A, TMZ, and RT were administered for 6 weeks, then 4-week break, followed by adjuvant Compound A and TMZ for 6 cycles then Compound A monotherapy in 28-day cycles until disease progression, start of a new anticancer therapy, withdrawal of consent or physician's decision. For concomitant therapy, part A, Compound A was administered at 15 mg or 30 mg QD Days 1-4 (weeks 1,5), TMZ was administered at 75 mg/m^2/day QD, and RT was administered at 2 Gy QD×5 days/week, for 42 days. This was then followed by a break in treatment therapy, e.g., from 1 to up to 4 weeks. Thereafter, adjuvant therapy was initiated by administering Compound A at 30 mg or 45 mg and TMZ at 150 or 200 mg/m^2 QD Days 1-5 of a 28-day cycle. Adjuvant therapy cycles were repeated from 2 to 6 times. After adjuvant therapy, was a monotherapy treatment. Monotherapy comprised administering Compound A at 45 mg 4 days on/24 days off.
For Part A, eighteen patients were enrolled in the adjuvant cohort and received adjuvant Compound A 15 mg/day (n=5), 30 mg/day (n=6), or 45 mg/day (n=7) 4 days on/24 days off plus TMZ followed by Compound A monotherapy 45 mg/day 4 days on/24 days off. Fourteen patients were enrolled in the concomitant cohort and received concomitant Compound A 15 mg/day (n=6) or 30 mg/day (n=8) 4 days on/24 days off in combination with TMZ and RT, followed by adjuvant Compound A 30 mg/day 4 days on/24 days off and Compound A monotherapy 45 mg/day 4 days on/24 days off. The demographics and characteristics of treated patients are described in the below table.

With `Cn1cc(-c2cc(S(C)(=O)=O)ccc2OCC2CC2)c2ccccc2c1=O` [Compound A, 4-[2-(cyclopropylmethoxy)-5-methylsulfonylphenyl]-2-methylisoquinolin-1-one] as the compound, how does the “GM AUC from 0 to 24 hours (AUC0-24)” value ([1]; C1D1, 30 mg daily) read?
The value was 5083 ng·h/mL.

And the Median tmax ([1]; C1D4)?
The Median tmax was 1.9 h.

What about the “mean t1/2” value ([1]; C1D4) of the same compound?
The value was 46 h.

And the “GM AUC0-24” value ([1]; C1D4, 30 mg daily)?
Its value is 11,250 ng h/mL.

What about the “geometric mean peak plasma concentration” value ([1]; Day 4) of the same compound?
Its value is 1.90 µM.

What about the “median time to peak concentration” value ([1]; Day 4) of the same compound?
The value was 1.75 h.

What about the “geometric mean (GM) Cmax” value ([1]; cycle 1, day 1 (C1D1), 30 mg daily) of the same compound?
Its value is 392 ng/mL.

And the “GM Cmax” value ([1]; cycle 1, day 4 (C1D4), 30 mg daily)?
Its value is 720 ng/mL.

And the “patients with Grade 3/4 TRAEs” value ([2]; Part A adjuvant cohort)?
The value was 56%.

And the “patients with TEAEs leading to treatment discontinuation” value ([2]; Part A adjuvant cohort)?
The value was 11%.

What about the “patients with any-grade gastrointestinal TRAEs” value ([2]; Part A adjuvant cohort) of the same compound?
The value was 78%.

What about the “patients with grade 3/4 diarrhea” value ([2]; Part A adjuvant cohort) of the same compound?
The value was “one”.

What about the “patients with thrombocytopenia TRAE, any grade” value ([2]; Part A adjuvant cohort) of the same compound?
Its value is 72%.

What about the “patients with thrombocytopenia TRAE, grade 3/4” value ([2]; Part A adjuvant cohort) of the same compound?
The value was 50%.

And the “patients with any-grade TRAEs” value ([2]; Part A adjuvant cohort (Compound A + TMZ))?
The value was 94%.

And the “patients with Grade 3/4 TRAEs” value ([2]; Part A concomitant cohort)?
The value was 64%.

And the “patients with TEAEs leading to treatment discontinuation” value ([2]; Part A concomitant cohort)?
Its value is 7%.

What about the “patients with gastrointestinal TRAEs” value ([2]; Part A concomitant cohort) of the same compound?
The value was 93%.

And the “patients with grade 3/4 TRAE of diarrhea” value ([2]; Part A concomitant cohort)?
The value was 7%.

And the “patients with nausea, any-grade TRAE” value ([2]; Part A concomitant cohort)?
The value was 79%.

And the “patients with thrombocytopenia, any grade” value ([2]; Part A concomitant cohort)?
Its value is 71%.

And the “patients with thrombocytopenia, grade 3/4” value ([2]; Part A concomitant cohort)?
The value was 50%.

What about the “patients with any-grade TRAEs” value ([2]; Part A concomitant cohort (Compound A + TMZ + RT)) of the same compound?
The value was 100%.

What about the “treatment-related deaths” value ([2]; Part A, both cohorts) of the same compound?
Its value is “no treatment-related deaths”.

And the “patients with Grade 3/4 TRAEs related to Compound A” value ([2]; Part B)?
Its value is 29%.

And the “patients with Grade 3/4 neutropenia related to Compound A” value ([2]; Part B)?
Its value is 18%.

And the “patients with Grade 3/4 thrombocytopenia related to Compound A” value ([2]; Part B)?
Its value is 18%.

And the “patients with TRAE leading to treatment discontinuation” value ([2]; Part B arm A)?
Its value is 4%.

And the “patients with TRAEs related to Compound A” value ([2]; Part B arm A)?
Its value is 86%.

And the “patients with diarrhea related to Compound A” value ([2]; Part B arm A)?
Its value is 43%.

What about the “patients with nausea related to Compound A” value ([2]; Part B arm A) of the same compound?
The value was 46%.

What about the “patients with thrombocytopenia related to Compound A” value ([2]; Part B arm A) of the same compound?
Its value is 46%.

What about the “tolerability in long-term follow-up” value ([2]; adjuvant Compound A plus TMZ and concomitant Compound A plus TMZ and RT) of the same compound?
Its value is “well tolerated”.

And the “best overall response: CR” value (newly diagnosed GBM; adjuvant cohort)?
The value was 6%.

What about the “best overall response: NE” value (newly diagnosed GBM; adjuvant cohort) of the same compound?
The value was 6%.

What about the “best overall response: PD” value (newly diagnosed GBM; adjuvant cohort) of the same compound?
The value was 11%.

What about the “best overall response: SD” value (newly diagnosed GBM; adjuvant cohort) of the same compound?
The value was 78%.

What about the “median PFS” value (newly diagnosed GBM; adjuvant cohort, 95% CI 3.9-NE) of the same compound?
Its value is 7.7 months.

What about the “progression-free survival (PFS) rate at 6 months” value (newly diagnosed GBM; adjuvant cohort, 95% CI 31.1-77.3) of the same compound?
Its value is 57.8%.

And the “best overall response: CR” value (newly diagnosed GBM; concomitant cohort)?
Its value is 7%.

What about the “best overall response: NE” value (newly diagnosed GBM; concomitant cohort) of the same compound?
The value was 7%.

And the “best overall response: PD” value (newly diagnosed GBM; concomitant cohort)?
Its value is 7%.

What about the “best overall response: SD” value (newly diagnosed GBM; concomitant cohort) of the same compound?
The value was 79%.

And the “median PFS” value (newly diagnosed GBM; concomitant cohort, 95% CI 5.2-14.0)?
The value was 12.3 months.

What about the “PFS rate at 6 months” value (newly diagnosed GBM; concomitant cohort, 95% CI 37.3-87.2) of the same compound?
Its value is 69.2%.
